We go through three compounds from patent publication US5302586A, “Phosphonomethyl-imidazo[1,2-a]pyrimidine-2-carboxylic acid compounds for treatment of neurotoxic injury” (G. D. Searle & Co., priority 1992, dated 1994).

For test [1], the system named is NMDA. To be noted: CPP binding to rat brain hippocampal tissue, Murphy et al 1987; cited from earlier work.
The target in test [2] is [^3 H]MK-801 binding, rat SPM (NMDA receptor). As to the kind of experiment: [^3 H]MK-801 Binding assay (Triton X-100 treated rat synaptic plasma membranes). To be noted: 5.0 nM [^3 H]MK-801, L-glutamate 10.0 nM, 25° C., 30 min, pH 7.4. As for the experimental part:
Modulation of [^3 H]MK-801 binding was performed using Triton X-100 (0.04% v/v) treated rat SPM that had been extensively washed. Assay incubations were at 25° C. for 30 min. and contained 5.0 nM [^3 H]MK-801, L-glutamate (10.0 nM), and various concentrations of the tested compound of the invention in 50 mM Tris/acetate, pH 7.4. The assay was stopped by rapid filtration, using Brandel MB-48 Harvester, through Whatman GF/B filters treated with 0.05% polyethylenimine and the samples washed four times with 2.0 mL cold buffer. The radioactivity associated with the filter was determined by liquid scintillation spectrometry. Nonspecific binding was defined using 60 μM MK-801. IC50 were determined using a logit-log transformation of the binding data.

For test [3], the target named is NMDA receptor site (NMDA-specific L-[^3 H]glutamate recognition site). As to the kind of experiment: NMDA-Selective Glutamate Binding Assay (L-[^3 H]glutamate, synaptic plasma membranes). Details: species or system rat. How it is done:
Synaptic plasma membranes (SPM) were prepared as previously described [Monohan, J. B. and Michel, J., "Identification and Characterization of an N-methyl-D-aspartate-specific L[^3 H]glutamate Recognition Site in Synaptic Plasma Membranes, J. Neurochem., 48, 1699-1708 (1987)]. The SPM were stored at a concentration of 10-15 mg/ml in 0.32M sucrose, 0.5 mM EDTA, 1 mM MgSO4, 5 mM Tris/SO4, pH 7.4, under liquid nitrogen. The identity and purity of the subcellular fractions were confirmed by both electron microscopy and marker enzymes. Protein concentrations were determined by using a modification of the method of Lowry [Ohnishi, S. T. and Barr, J. K., "A Simplified Method of Quantitating Proteins Using the Biuret and Phenol Reagents", Anal. Biochem., 86, 193-197 (1978)]. The SPM were treated identically for the [^3 H]AMPA (QUIS), [^3 H]kainate and sodium-dependent L-[^3 H]-glumatate binding assays. […] Beckman MP scintillation cocktail containing 7 mL/1 acetic acid was then added and the samples counted on a Beckman LS 5800 or 3801 liquid scintillation counter with automatic corrections for quenching and counting efficiency. […] Radioligand binding to the synaptic plasma membranes was analyzed using Scatchard and Hill transformations and the Ki values of the compounds determined using logit-log transformations. […]

As for `O=C(O)C1CN(CCCP(=O)(O)O)CCN1` (stereo not shown) [CPP, 3-(2-carboxypiperazin-4-yl)propyl-1-phosphonic acid], the “NMDA antagonist potency and selectivity” value in test [1] was “potent and selective NMDA antagonist”.

As to `O=C(O)c1cn2c(CP(=O)(O)O)ccnc2n1` [Example 1, 5-Phosphonomethyl-imidazo[1,2-a]pyrimidine-2-carboxylic acid], the Ki – broadly, the dissociation constant of the complex between target and ligand, obtained from inhibition or displacement – was 4.6 µM in test [2] and 8.8 µM in test [3] ([^3 H]GLU, Triton X-100 treated SPM, 50 mM Tris/acetate pH 7.4, 0°-4° C., 10 min).

Take `O=C(O)c1cn2ccc(CP(=O)(O)O)nc2n1` [Example 2, 7-phosphonomethyl-imidazo[1,2-a]pyrimidine-2-carboxylic acid]: the “[^3 H]GLU % inhibition” value in test [3] (@ 10 μM) is 14%.
